Patent publication US9005922B2, “Sensor chip for screening topoisomerase inhibitor and screening method thereof” (Taipei Medical University, priority 2010, dated 2015)

Columns and labels:
[1] = biological target: T1, hTopI-DNA cleavage complex (Homo sapiens, UniProt P11387); test: SPR assay on sensor chip with immobilized hTop I, inhibitor together with pUC19 plasmid DNA in analytes; assay type: binding
T1 construct: made in house
T1 sequence (P11387 1-765): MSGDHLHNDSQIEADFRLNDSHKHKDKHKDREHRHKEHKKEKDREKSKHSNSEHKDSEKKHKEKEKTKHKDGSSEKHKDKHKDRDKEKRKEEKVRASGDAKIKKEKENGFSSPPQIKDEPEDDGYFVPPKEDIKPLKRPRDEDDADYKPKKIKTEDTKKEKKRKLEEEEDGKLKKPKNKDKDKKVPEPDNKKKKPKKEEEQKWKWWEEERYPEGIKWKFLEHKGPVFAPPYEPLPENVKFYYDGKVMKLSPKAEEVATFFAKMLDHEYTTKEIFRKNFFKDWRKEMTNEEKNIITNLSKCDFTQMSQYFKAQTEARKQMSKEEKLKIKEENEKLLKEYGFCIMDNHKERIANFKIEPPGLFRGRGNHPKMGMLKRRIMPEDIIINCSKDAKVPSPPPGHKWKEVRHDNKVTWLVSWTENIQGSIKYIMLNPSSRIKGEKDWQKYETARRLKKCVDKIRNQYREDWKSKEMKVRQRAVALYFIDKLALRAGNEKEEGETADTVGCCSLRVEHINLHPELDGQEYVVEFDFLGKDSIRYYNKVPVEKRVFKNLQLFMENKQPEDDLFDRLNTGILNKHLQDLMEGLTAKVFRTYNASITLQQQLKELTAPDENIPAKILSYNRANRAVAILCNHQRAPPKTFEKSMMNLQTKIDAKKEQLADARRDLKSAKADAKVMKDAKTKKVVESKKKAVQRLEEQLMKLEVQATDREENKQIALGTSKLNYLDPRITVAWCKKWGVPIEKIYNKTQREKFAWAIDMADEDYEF
Method: (§1) Briefly, the surface of the micro-fluid chip is activated with 0.05-0.5 M N-hydroxysuccinimide and 0.1-0.5 M N-ethyl-N′-(3-dimethylaminopropyl) carbodiimimide at a flow rate of 25 μL/min. The hTop I is diluted in 10 mM sodium acetate and adjusted pH values to pH 3.0-10.0, preferably to pH 5.0-8.5, especially to pH 7.5. The hTop I is immobilized on the micro-fluid chip at 20-40[…] (preferably at 25[…]) using a flow rate of 10-40 μL/min (preferably 25-30 μL/min, specially 25 μL/min) for 60-300 seconds (preferably 200-300 seconds), and therefore the contents of the hTop I are about 20-150 μL. Activated amine groups are quenched with injecting 1 M ethanolamine (pH 7.0-9.0). Recombinant hTop I was covalently coupled to the carboxymethylated dextran surface of the chip using standard amine-coupling chemistry.
To characterize the drug-binding kinetics using the SPR sensor chip, plasmid DNA (1.0 μg/ml) is included in the analytes. […] The interaction causes an increase in the higher the mass of ligands immobilized on the micro-fluid chip, and is reflected in a rise in RUs.

[2] = biological target: T2, immobilized hTop I (Homo sapiens, UniProt P11387); test: SPR assay on sensor chip with immobilized hTop I, inhibitor alone without DNA in analytes; assay type: binding; settings: CPT alone 0-250 nM, no DNA in analytes, FIG. 8
T2 construct: made in house
T2 sequence (P11387 1-765): T1 sequence (P11387 1-765)
Method: as §1
[…] […] The interaction causes an increase in the higher the mass of ligands immobilized on the micro-fluid chip, and is reflected in a rise in RUs.

[3] = biological target: T3, recombinant human topoisomerase I (hTop I) (Homo sapiens, UniProt P11387); test: Gel electrophoresis assay of pUC19 supercoiled DNA relaxation by hTop I; assay type: biochemical; settings: pUC19 plasmid DNA with hTop I, agarose gel, CPT 2-8 μM, FIG. 4 lanes 3-6
T3 construct: made in house
T3 sequence (P11387 1-765): T1 sequence (P11387 1-765)
Excerpt: The pUC19 plasmid DNA is closely circular double-stranded supercoiled DNA. When the pUC19 plasmid DNA is interacted with the Top I, one strand of the circular double-stranded supercoiled DNA is cleaved, separated and religated to form a relaxed form. A gel electrophoresis assay is used to evaluate the conformational change of pUC19 plasmid DNA.

[4] = pUC19 plasmid DNA 1.0 μg/ml plus CPT, compared to DNA only, ProteOn Manager 2.0 calculation

| SMILES | binding to hTop I immobilized on the micro-fluid chip ([1]; VP-16 and pUC19 plasmid DNA loaded simultaneously) | RU response (binding) ([1]; pUC19 plasmid DNA 1.0 μg/ml plus CPT 0, 62.5, 125 and 250 nM, FIG. 9) | Ka [1, 4] | Kd [1, 4] | binding to hTop I (RU values) [2] | inhibitory effect on hTop I relaxation activity (supercoiled DNA retained) [3] |
| --- | --- | --- | --- | --- | --- | --- |
| COc1cc([C@@H]2c3cc4c(cc3[C@@H](O[C@@H]3O[C@@H]5CO[C@@H](C)O[C@H]5[C@H](O)[C@H]3O)[C@H]3COC(=O)[C@H]23)OCO4)cc(OC)c1O [VP-16, etoposide] | does not bind to the hTop I | – | – | – | – | – |
| CC[C@@]1(O)C(=O)OCc2c1cc1n(c2=O)Cc2cc3ccccc3nc2-1 [CPT, camptothecin] | – | RU increases in a concentration-dependent manner | 9.11×10^7 | 3.74×10^−21 | does not bind to hTopI without DNA | inhibited hTop I relaxation activity |
